# Reference: patent US7262177B2, “Conjugates of glycosylated/galactosylated peptide, bifunctional linker, and nucleotidic monomers/polymers, and related compositions and methods of use” (priority 2000, dated 2007)
# Where “and” joins values, the source holds several entries; their conditions need not be identical. Identical values can stand only once.
# How the values were obtained:
# alpha-fetoprotein (AFP) = assay: Serum AFP levels in tumor-bearing nude mice; type: in vivo, human; settings: for level of AFP: 15 mg/kg weekly
# Excerpt: Xenotransplanted tumors have been previously shown to be responsive to 5FU chemotherapy as assayed by direct physical measurement of the tumor (Houghton et al., Biochem. Pharmacol., 36, 1285-1289 (1987)), histological changes and biochemical measurements, such as alpha-fetoprotein (AFP) levels (Lemoine et al., Pathol. Biol. (Paris), 47, 903-910 (1999)) and thymidylate synthase levels (Peters et al., J. Clin Oncol., 12, 2035-2042 (1994)). The xenograft tumors in nude mice are a widely used model for tumor studies that allows for direct measurement of the growth of human tumors. Male CD-1 nude mice (6-8 weeks old, 20-22 g in weight) were used for these bioefficacy studies. An injection of 10^8 Hep G2 cells was made subcutaneously into the subcapsular region of each mouse. Mice were observed daily for tumor formation. After tumors emerged, they were measured twice a week in two dimensions with sliding calipers. When the tumors reached a weight of 100 mg in weight as determined by the formula: [(weight, mg)=(length (mm)×width (mm))^2/2], treatment was initiated (Geran et al., Cancer Chemother. Rep., 3, 51-61 (1972)). Initially, mice were treated with 10 mg/kg dose once/week for 8 weeks. Subsequently, separate cohorts of mice were treated with 15 mg/kg weekly for 8 weeks and finally 10 mg/kg twice weekly for 8 weeks. The impact of treatment upon tumor growth was judged by direct measurement as described above. In addition, tumor progression was tracked by serological measurements, such as AFP levels. AFP levels were assayed weekly following each injection. Blood was taken retro-orbitally from each mouse. AFP levels were assayed immunochemically, using kits supplied by Abbott Laboratories (Waukegan, Ill.) and based on the methods of Wang et al. (Cancer Res., 50, 869s-872s (1990)). Measurements of AFP levels were intended to complement direct physical measurement as an indicator of tumor progression. Generally, serum AFP levels behave as if they reflect tumor mass. […]
# [1] = test system: Hep G2 human hepatoma xenografts; assay: Bioefficacy against human hepatoma (Hep G2) xenografts in nude mice; type: in vivo, CD-1 nude mice
# Excerpt: Xenotransplanted tumors have been previously shown to be responsive to 5FU chemotherapy as assayed by direct physical measurement of the tumor (Houghton et al., Biochem. Pharmacol., 36, 1285-1289 (1987)), histological changes and biochemical measurements, such as alpha-fetoprotein (AFP) levels (Lemoine et al., Pathol. Biol. (Paris), 47, 903-910 (1999)) and thymidylate synthase levels (Peters et al., J. Clin Oncol., 12, 2035-2042 (1994)). The xenograft tumors in nude mice are a widely used model for tumor studies that allows for direct measurement of the growth of human tumors. Male CD-1 nude mice (6-8 weeks old, 20-22 g in weight) were used for these bioefficacy studies. An injection of 10^8 Hep G2 cells was made subcutaneously into the subcapsular region of each mouse. Mice were observed daily for tumor formation. After tumors emerged, they were measured twice a week in two dimensions with sliding calipers. When the tumors reached a weight of 100 mg in weight as determined by the formula: [(weight, mg)=(length (mm)×width (mm))^2/2], treatment was initiated (Geran et al., Cancer Chemother. Rep., 3, 51-61 (1972)). Initially, mice were treated with 10 mg/kg dose once/week for 8 weeks. Subsequently, separate cohorts of mice were treated with 15 mg/kg weekly for 8 weeks and finally 10 mg/kg twice weekly for 8 weeks. The impact of treatment upon tumor growth was judged by direct measurement as described above. In addition, tumor progression was tracked by serological measurements, such as AFP levels. AFP levels were assayed weekly following each injection. Blood was taken retro-orbitally from each mouse. AFP levels were assayed immunochemically, using kits supplied by Abbott Laboratories (Waukegan, Ill.) and based on the methods of Wang et al. (Cancer Res., 50, 869s-872s (1990)). Measurements of AFP levels were intended to complement direct physical measurement as an indicator of tumor progression. Generally, serum AFP levels behave as if they reflect tumor mass. However, it should be noted that moderately raised AFP levels have been found in some patients with uncomplicated liver disease. Despite these false positives, serum AFP levels have been successfully used to monitor response to therapy (Johnson, J. Gastroent Hepatol., 14 (Suppl.), s32-s36 (1999)) especially in the tumor-bearing nude mice, where the human tumor is the only source of human AFP. Results from such assays provide an early indication of HCC potential before it is manifested as physical tumor growth. The data generated by the above experiments should aid in the derivation of starting doses for larger mammal testing and subsequent clinical studies.
# [2] = Stability of 1-mer conjugates in RPMI 1640+10% FCS (PAGE); type: in vitro ADME; settings: up to 8 hrs, PAGE analysis
# Method: Initially, the stability of the two neoglycoconjugates was assessed in RPMI 1640+10% FCS. […] In terms of cellular uptake, the po-linked conjugate at a dose of 1 μM was taken up rapidly in a progressive manner by Hep G2 cells in vitro to the extent of 24.75 pmoles/10^6 cells at 480 min. The rate of cellular uptake was next analyzed with respect to the administered dose of the conjugate. […] This amount doubled within the next 30 min and peaked at 25 pmoles/million cells at 480 min. […] While the administration of 4 μM conjugate led to a linear increase of conjugate uptake with respect to time, the rate at which cellular uptake occurred upon the administration of 8 μM conjugate rose sharply at 120 min.
# [3] = Serum stability of po 1-mer conjugate, HPLC method (a), column 1; type: in vitro ADME; settings: 37° C.; for Average Peak area / Trial Peak area: human serum
# Method: Studies were carried out at physiological conditions. The analyses were accomplished using reversed-phase HPLC and PAGE methods. The raw data are presented in table format (Tables 1, 2 and 3). The serum half-life calculated is t1/2=1/k (0.693), derived from the [A]=[A0]e^−kt, where [A0] is the original amount of substrate, [A] is the measured substrate level, t is time (min), and k is the first-order rate constant.
# (a) Reaction Conditions: 50 μl of human serum were added to 24 nmoles of HPLC purified po 1-mer Conjugate and incubated at 37° C. for allotted time periods (0 min, 60 min, 180 min, 360 min). Column 1: flow 1.0 ml/min, Rainin MicroSorb C18 reversed-phase column HPLC gradient: 100% NH4OAc for 10 min, then 0→100% CH3CN in 25 min. (0.1 M NH4OAc) (Table 1).
# Hep G2 cells = assay: Cellular uptake of 5FU 1-mer conjugates by Hep G2 cells; type: cell-based, human
# Method: Hep G2 cells were passaged into 2 cm^2 wells and grown in RPMI 1640 medium, which was supplemented with L-glutamine (10-040, CV) to a density of 0.3×10^6 to 0.4×10^6 cells per well (48-well cluster plate, Costar, Cambridge, Mass.). […] Then, an aliquot of the medium was saved for scintillation counting and the remainder of the medium aspirated from the well. The cells were washed with D-PBS (2×0.5 ml), treated with 0.25% trypsin (37° C., 2 minutes; trypsin prepared in HBSS with 1.0 mM EDTA) and suspended in fresh growth medium containing 10% FCS. The suspended cells were layered over silicon oil (0.5 ml) in a 1.7 ml conical microcentrifuge tube and pelleted by centrifugation at 14,000 rpm (12,000 g) for 30 seconds. The supernatant was carefully decanted and the cell pellet was lysed with 100 μl of a solution containing 0.5% NP 40, 100 mM sodium chloride, 14 mM Tris/HCl and 30% acetonitrile. The amount of radioactivity, and by inference the amount of neoglycoconjugate or oligomer associated with the cell lysate, was determined by scintillation counting.
# TSU carcinoma cells = assay: Viability of TSU carcinoma cells; type: cell-based, human; settings: TSU carcinoma cells treated with conjugate
# [4] = 10 mg/kg twice weekly, after 3 weeks
compound,measurement,setting,value
"CC(=O)N[C@H]1[C@H](OCCCCCCNC(=O)CC[C@H](NC(=O)CC[C@H](NC(=O)[C@H](Cc2ccc(O)cc2)NC(=O)C2CCC(CN3C(=O)CC(SCCCCCCOP(=O)(O)OC[C@H]4O[C@@H](n5cc(F)c(=O)[nH]c5=O)C[C@@H]4O)C3=O)CC2)C(=O)NCCCCCCO[C@@H]2O[C@H](CO)[C@H](O)[C@H](O)[C@H]2NC(C)=O)C(=O)NCCCCCCO[C@@H]2O[C@H](CO)[C@H](O)[C@H](O)[C@H]2NC(C)=O)O[C@H](CO)[C@H](O)[C@@H]1O (stereo partly drawn) [po 1-mer, YEE(ahGalNAc)3-SMCC-poFU]",AFP measurements,"alpha-fetoprotein (AFP); 10 mg/kg twice weekly, week 6",below the limits of detection
same,level of AFP,alpha-fetoprotein (AFP); after 3 weeks of treatment,less than 200 μg/ml
same,level of AFP,alpha-fetoprotein (AFP); week 8,below the level of detection
same,body weight,[1]; [4],moderate reduction in body weight
same,tumor progression,[1]; [4],significant reduction in tumor progression
same,tumors,"[1]; 10 mg/kg twice weekly, after 6 weeks",beyond detection
same,effect on tumor growth,[1]; 10 mg/kg weekly for 8 weeks,mild inhibition of tumor growth
same,histological analysis of tumors,"[1]; 10 mg/kg weekly, after 8 weeks",reduced mitotic index and increased amount of necrotic tissue
same,average tumor weight,"[1]; 10 mg/kg weekly, at 8 weeks (saline control about 15 g)",about 7 g
same,body weight (clinical toxicity),[1]; 15 mg/kg weekly,steady weight gain equivalent to that of a non-tumor bearing mice
same,tumor burden,"[1]; 15 mg/kg weekly, after 2 additional injections (7)",tumor burden was eradicated in one mouse and the tumor size was reduced in the others
same,tumor progression,"[1]; 15 mg/kg weekly, after 5 injections",almost static
same,histological analysis of tumor,"[1]; 15 mg/kg weekly, after treatment",very low mitotic index and extensive necrosis
same,stability in media containing 10% FCS,[2],stable
same,Average Peak area,[3]; 0 min,17.78
same,Trial Peak area,"[3]; 0 min, listed as po 1-mer Conjugate",17.65 and 17.92
same,Average Peak area,[3]; 60 min,13.77
same,Trial Peak area,"[3]; 60 min, listed as po 1-mer Conjugate",15.11 and 12.43
same,Average Peak area,[3]; 180 min,10.17
same,Trial Peak area,"[3]; 180 min, listed as po 1-mer Conjugate",9.356 and 10.9908
same,Average Peak area,[3]; 360 min,11.4
same,Trial Peak area,[3]; 360 min,11.4
same,half-life at 480 µM,"[3]; human, serum, HPLC (a), read-out: serum t1/2",578 min
same,cellular uptake,"Hep G2 cells; 1 μM, 30 min",5 pmoles/million cells
same,cellular uptake,"Hep G2 cells; 1 μM, 480 min",24.75 pmoles/10^6 cells
same,cellular uptake (peak),"Hep G2 cells; 1 μM, 480 min",25 pmoles/million cells
same,cellular uptake,"Hep G2 cells; 2 μM, 480 min",about 26 pmole/10^6 cells
same,maximal cellular uptake,Hep G2 cells; 4 μM,36 pmoles/million cells
same,maximum cellular uptake,"Hep G2 cells; 4 μM, 480 min",about 36 pmoles/10^6 cells
same,maximal cellular uptake,Hep G2 cells; 8 μM,43 pmoles/million cells
same,cellular uptake,"Hep G2 cells; 8 μM, 120 min",35 pmoles/10^6 cells
same,maximum cellular uptake,"Hep G2 cells; 8 μM, 480 min",~42 pmoles/10^6 cells
same,viability of cells,TSU carcinoma cells,not affected
